Results published in US9290528B1, “Light-activated compounds” (University of Kentucky Research Foundation, priority 2013, dated 2016).
Values joined by “and” are separate entries in the source; they are usually repeats but may differ in a detail not shown here. Equal entries are not always repeated. Where two headings read alike, the source gives them in different places.

What was measured:
[1] = system: A549 tumor spheroids; experiment: A549 tumor spheroid cytotoxicity; format: cell-based; conditions: for MCR Index: ratio of spheroid and monolayer culture IC50
Method: A549 cells were seeded at 2,500 cells/well in 1.5% agarose coated 96-well plates. After 7 days the spheroids were dosed with compounds and incubated for 12 hrs. […] Cellular viability was determined 72 hours after light activation for the irradiated samples and at the same time point for the dark samples by measuring ATP concentration with CellTiter Glo (Promega). Data were fit to an equation for sigmoidal dose response shown above using the Prism software package.
3D tumor spheroids were used to test the compounds. Spheroids provide a system that approximates the complexity of in vivo tumors. These spheroids mimic the pathophysiology of tumors, including hypoxic/necrotic regions, changes in cell shape, high proportions of quiescent cells, alterations in gene expression profiles, and diminished permeability to drugs. […] To characterize the light-activated ruthenium compounds under more challenging and biologically relevant conditions, efficacy was assessed in a 3D tumor model by forming tumor spheroids with A549 cells.
Spheroids of about 600 μm in diameter were dosed with compounds and then either kept in the dark or irradiated with >450 nm light for 3 minutes.

[2] = system: A549 lung cancer cells; experiment: Cell survival assay, A549 monolayer; format: cell-based; conditions: for Phototoxicity Index, PI A549: ratio of dark and light IC50
Method: (§1) The HL60 promyelocytic leukemia cell line was obtained from ATCC and cultured in IMDM media (Invitrogen; Carlsbad, Calif.) supplemented with 10% serum supreme (Lonza; Basel, Switzerland) and penicillin/streptomycin at 37° C. with 5% CO2. The A549 cell line was donated and cultured in DMEM supplemented with glutamax, 10% serum supreme, and penicillin/streptomycin at 37° C. with 5% CO2. Cells were plated in Optimem (Life Technologies; Carlsbad, Calif.) supplemented with 1% serum supreme and penicillin/streptomycin at 30,000 cells per well in Costar 96 well flat bottom clear tissue culture treated plates for HL60 and 1500 cells/well for A549. […] The cells were then incubated for 72 hours followed by the addition of Cell Titer Glo (Promega; Madison, Wis.) to determine viability. Dark controls were run in parallel. The resulting luminescence was measured using the SpectraFluor Plus Plate Reader (Tecan). Data were fit to an equation for a sigmoidal dose response using the equation below, where yi and yf are the initial and final signal intensities.
(§2) Cell cytotoxicity studies were performed in HL60 leukemia cells and A549 lung cancer cells (see FIG. 7 and Table 3). Cells were incubated with compounds for 12 hours in the dark before irradiated with >450 nm light (410 W) for 3 minutes. Dark controls were run in parallel. Cell survival was quantified 72 hours later through the use of an ATP luciferase assay, and confirmed by Trypan Blue staining and manual counting.

[3] = system: HL60 promyelocytic leukemia cell line; experiment: Cell survival assay, HL60; format: cell-based; conditions: for Phototoxicity Index, PI HL60: ratio of dark and light IC50
Method: as §1, §2

[4] = system: pUC19 plasmid; experiment: Glutathione assay: pUC19 crosslinking with increasing GSH; format: biochemical; conditions: 30 μM compound, 0.01-40 mM GSH; 4 light-activated
Method: The concentrations of GSH were 0.01, 0.1, 1, 10, 40 mM, giving a molar ratio between the compounds and glutathione of a) 1:0.3, b) 1:3.3, c) 1:33, d) 1:333, e) 1:1333. […] Control reactions with pUC19 in the presence and absence of GSH were carried out for 12 hrs in the dark with 25 μg/ml plasmid and 40 mM GSH in 10 mM phosphate buffer, pH 7.5. The plasmid was resolved on a 1% agarose gel as described above.
(§3) The photoactivated DNA crosslinking Ru(bpy)2 species retained its ability to damage DNA, even at higher GSH concentrations.

[5] = system: HL-60 human leukemia cell line; experiment: Cytotoxicity in HL-60 cells, dark and irradiated (Example 1); format: cell-based
Method: Cytotoxicity studies were performed to determine if the light-induced DNA damage translated to biological activity in cancer cells. […] The compounds were incubated with the cells for 12 hours prior to irradiation with blue (>400 nm), red (>600 nm), and near-IR (>650 nm) light (Table 2). […] Increasing the light dose increased the observed potency. […] A phototoxicity index (PI) value (the toxicity in the dark vs. the light) of 43 was found with blue light for compound 1.

[6] = system: HL60 cells; experiment: Western blot of PARP and caspase 3 cleavage; format: cell-based, human; conditions: protected from light and irradiated
Method: Given the different cellular localization properties and time profiles for cell death induced by 9 and 10, the mechanism of cell death was investigated. Indicators of apoptotic cell death (activation of PARP and caspase 3 through proteolysis) were determined in HL60 cells treated with either 9 or 10 (FIGS. 15A and 15B).
The generation of an alternate 55 kDa PARP fragment was determined by immunoblot as a marker for necrosis with 10% (v/v) ethanol used as a control that induces necrosis.

[7] = system: HL60 leukemia cells and A549 lung cancer cells; experiment: Cell cytotoxicity studies, summary over HL60 and A549; format: cell-based; conditions: for activity light versus dark: >450 nm light 3 minutes vs dark
Method: as §1, §2

[8] = system: HL60 cells; experiment: Genomic DNA laddering by gel electrophoresis; format: cell-based, human; conditions: dark / not irradiated
Description: To further analyze the mechanisms of cell death induced by 9 and 10, the degradation pattern of genomic DNA was investigated. DNA laddering was observed as a result of DNA fragmentation stemming from the execution phase of apoptosis. In contrast, necrotic cell death lacked this characteristic laddering effect, allowing differentiation between these two mechanisms. […] This laddering was absent in the cells treated with ethanol and compounds 9 and 10 in the dark. […] In contrast, given the cytotoxicity of 9 in the dark and the presence of the 55 kDa PARP fragment, it appears that necrotic cell death is one pathway for […]. For compound 10 the absence of DNA laddering may be a result of the lack of cytotoxicity of the negatively charged compound.

[9] = Light and dark cytotoxicity of exemplary compounds (Table 6); format: cell-based; conditions: for IC50: cell line not stated; for Phototoxicity Index: dark IC50/light IC50
Description: This Example describes additional specific embodiments the presently-disclosed subject matter. […] The methods for making and characterizing the compounds are based on the methodologies described in the previous examples.

[10] = system: pUC19 plasmid; experiment: Plasmid-compound gel analysis (Example 2); conditions: visible light 200 W, 1 hour
[11] = Interaction of prodrug compounds with GSH by UV/Vis spectroscopy; format: physicochemical; conditions: period of days
Description: as §3

[12] = molecular target: CT DNA; experiment: DNA binding affinity (Kb) with CT DNA; design: species or system calf; conditions: racemic mixtures
Description: Intercalation of both complexes was consistent with the reduced mobility of supercoiled plasmid DNA in agarose gels, and the modulation of the absorption spectra in the presence of DNA, characterized by hypochromism of both the π-π* of the dppz ligand and the MLCT transitions, with maximal effect at a ratio of 2:1 DNA base pairs to metal center. Thus, the strained complex retained DNA-sensing capabilities of other Ru^II “light-switch” molecules and photochemical reactivity.

[13] = dark, read-out: Dark IC50 A549 spheroid
[14] = 3 min >450 nm light, 72 hours, read-out: Light IC50 A549
[15] = 3 min >450 nm light, 72 hours, read-out: Light IC50 HL60
[16] = 3 min >450 nm light, 72 hours, read-out: Light IC50 A549 spheroid

Cl.NCC(=O)CCC(=O)O [ALA, 5-aminolevulinic acid hydrochloride, reference compound]
Light IC50 A549 spheroid ([1]; 3 min >450 nm light, 72 hours): had no effect
IC50 ([1]; Homo sapiens, A549, 3 min >450 nm light, 72 hours, read-out: Light IC50 A549 spheroid): > 300 µM
IC50 ([1]; Homo sapiens, A549, read-out: Dark IC50 A549 spheroid): > 300 µM
MCR Index [1]: >14
IC50 ([2]; Homo sapiens, A549, 3 min >450 nm light, 72 hours, read-out: Light IC50 A549): 21 µM
IC50 ([2]; Homo sapiens, A549, read-out: Dark IC50 A549): 87.8 µM
Phototoxicity Index, PI A549 [2]: 4.2
IC50 ([3]; Homo sapiens, HL-60, 3 min >450 nm light, 72 hours, read-out: Light IC50 HL60): 16.2 µM
IC50 ([3]; Homo sapiens, HL-60, read-out: Dark IC50 HL60): > 300 µM
Phototoxicity Index, PI HL60 [3]: >18

N.N.[Cl][Pt][Cl] [Cisplatin, reference compound]
plasmid DNA crosslinking in presence of increasing GSH [4]: reduced crosslinking efficacy
IC50 [1, 13]: 42 µM
IC50 ([5]; HL-60, dark, read-out: IC50 Dark): 3.1 µM
IC50 ([5]; HL-60, light condition not given, read-out: IC50): 3.1 µM
IC50 ([5]; read-out: IC50 Blue (3 min), HL-60, 12 hours incubation, blue (>400 nm) light 3 min): 3.1 µM
IC50 [2, 14]: 3.4 µM
IC50 ([2]; dark, read-out: Dark IC50 A549): 3.5 µM
IC50 [3, 15]: 3.1 µM
IC50 ([3]; dark, read-out: Dark IC50 HL60): 3.1 µM
55 kDa PARP fragment (marker for necrosis) [6]: also produced this cleavage product
activity light versus dark [7]: same activity under light and dark conditions
genomic DNA laddering [8]: initiated DNA fragmentation resulting in a laddering pattern
IC50 ([9]; read-out: Dark IC50): 3.1 µM
IC50 ([9]; read-out: Light IC50): 3.1 µM

[Ru+2].c1ccc(-c2ccccn2)nc1.c1ccc(-c2ccccn2)nc1.c1cnc2c(c1)ccc1cccnc12 [Compound 3, Ru(bpy)2phen]
IC50 [1, 16]: > 300 µM
IC50 [1, 13]: > 300 µM
MCR Index [1]: >7.5
IC50 [2, 14]: 40 µM
IC50 ([2]; dark, read-out: Dark IC50 A549): 250 µM
Phototoxicity Index, PI A549 [2]: 6.3
IC50 [3, 15]: 81 µM
IC50 ([3]; dark, read-out: Dark IC50 HL60): 240 µM
Phototoxicity Index, PI HL60 [3]: 3
type of DNA damage upon visible light [10]: DNA photocleavage

Cc1ccc2c3nccnc3c3ccc(C)nc3c2n1.F[P-](F)(F)(F)(F)F.F[P-](F)(F)(F)(F)F.[Ru+2].c1ccc(-c2ccccn2)nc1.c1ccc(-c2ccccn2)nc1 [Compound 5, Ru(bpy)2dmdpq]
IC50 [1, 16]: 64 µM and 64.6 µM
IC50 [1, 13]: > 300 µM
MCR Index [1]: 54
interaction with GSH [11]: did not interact with GSH
IC50 [2, 14]: 1.2 µM
IC50 ([2]; dark, read-out: Dark IC50 A549): 250 µM
Phototoxicity Index, PI A549 [2]: 208
IC50 [3, 15]: 2.6 µM
IC50 ([3]; dark, read-out: Dark IC50 HL60): 108 µM
Phototoxicity Index, PI HL60 [3]: 216
activity light versus dark [7]: light-triggered toxicity
IC50 values after irradiation ([7]; after irradiation): single μM IC50 values
IC50 ([7]; dark): > 100 µM
type of DNA damage upon visible light [10]: combination of these two mechanisms
IC50 ([9]; read-out: Dark IC50): 250 µM
IC50 ([9]; read-out: Light IC50): 0.6 µM
Phototoxicity Index [9]: 400

Cc1cc(-c2ccccc2)c2ccc3c(-c4ccccc4)cc(C)nc3c2n1.[Ru+2].c1ccc(-c2ccccn2)nc1.c1ccc(-c2ccccn2)nc1 [Ru(bpy)2bathocuprione]
IC50 ([9]; read-out: Dark IC50): 27 µM
IC50 ([9]; read-out: Light IC50): 3.3 µM
Phototoxicity Index [9]: 8.18

Cc1ccc2ccc3ccc(C)nc3c2n1.[Ru+2].c1ccc(-c2ccccn2)nc1.c1ccc(-c2ccccn2)nc1 [Ru(bpy)2dmphen]
IC50 ([9]; read-out: Dark IC50): 8 µM
IC50 ([9]; read-out: Light IC50): 0.4 µM
Phototoxicity Index [9]: 20

Cc1ccc2ccc3ccc(C)nc3c2n1.Cc1ccc2ccc3ccc(C)nc3c2n1.[Ru+2].c1ccc(-c2ccnc3c2ccc2c(-c4ccccc4)ccnc23)cc1 [Ru(dmphen)2bathophen]
IC50 ([9]; read-out: Dark IC50): 4.5 µM
IC50 ([9]; read-out: Light IC50): 1.7 µM
Phototoxicity Index [9]: 2.5

Cc1ccc2ccc3ccc(C)nc3c2n1.Cc1ccc2ccc3ccc(C)nc3c2n1.[Ru+2].c1ccc(-c2ccccn2)nc1 [Ru(dmphen)2bpy]
IC50 ([9]; read-out: Dark IC50): 150 µM
IC50 ([9]; read-out: Light IC50): 1.2 µM
Phototoxicity Index [9]: 125

Cc1ccc2ccc3ccc(C)nc3c2n1.Cc1ccc2ccc3ccc(C)nc3c2n1.[Ru+2].c1ccc2nc3c4cccnc4c4ncccc4c3nc2c1 [Ru(dmphen)2dppz]
IC50 ([9]; read-out: Dark IC50): 150 µM
IC50 ([9]; read-out: Light IC50): 0.5 µM
Phototoxicity Index [9]: 300

Cc1ccc2ccc3ccc(C)nc3c2n1.Cc1ccc2ccc3ccc(C)nc3c2n1.[Ru+2].c1cnc2c(c1)c1nccnc1c1cccnc12 [Ru(dmphen)2dpq]
IC50 ([9]; read-out: Dark IC50): 250 µM
IC50 ([9]; read-out: Light IC50): 0.22 µM
Phototoxicity Index [9]: 1,130

Cc1ccc2ccc3ccc(C)nc3c2n1.Cc1ccc2ccc3ccc(C)nc3c2n1.[Ru+2].c1cnc2c(c1)ccc1cccnc12 [Ru(dmphen)2phen]
IC50 ([9]; read-out: Dark IC50): 35 µM
IC50 ([9]; read-out: Light IC50): 0.14 µM
Phototoxicity Index [9]: 250

COc1cccc2c1C(=O)c1c(O)c3c(c(O)c1C2=O)C[C@@](O)(C(=O)CO)C[C@@H]3O[C@H]1C[C@H](N)[C@H](O)[C@H](C)O1 [doxorubicin, reference compound]
55 kDa PARP fragment (marker for necrosis) [6]: also produced this cleavage product

Ru(bpy)2dppz [Compound 7, reference compound]
Kb [12]: 1e+07 M⁻¹
